In assay [1] the test system is OPM-2 human multiple myeloma cell line. The assay can be described thus: Cell Viability Assay (OPM-2 10 FBS). In kind it is cell-based. The settings on record: OPM-2 cells, CellTiter-Glo. The procedure: Cell Viability Assay (OPM-2 10 FBS)
Cells were seeded into 384-well plates at 3000 cells/well density in complete growth medium containing 10% FBS, and incubated for 16 h with serially diluted test compounds in a 37° C. incubator with 5% CO2. Cell viability was tested using CellTiter-Glo® assay (Promega, Madison, WI) according to the manufacturer recommendations. Luminescence was determined using an EnVision® Multilabel plate reader 25 min after the addition of detection reagent. IC50 values were then calculated with Xlfit using a logistical 4-parameter fit model in GraphPad Prism (GraphPad Software, San Diego, CA) or in Genedata Screener® (Genedata, Basel, Switzerland).

In assay [2] the target is T1, Mcl-1/Bim interaction, recombinant human Mcl-1 (171-327) (Homo sapiens, UniProt Q07820).
T1 construct: made in house
T1 sequence (Q07820 171-327): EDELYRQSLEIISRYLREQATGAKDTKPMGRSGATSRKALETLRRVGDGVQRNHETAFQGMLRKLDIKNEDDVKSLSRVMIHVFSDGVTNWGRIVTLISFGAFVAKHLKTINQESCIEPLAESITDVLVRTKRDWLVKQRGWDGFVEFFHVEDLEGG
Put plainly: Cell free Mcl-1: Bim Affinity Assay (Mcl-1 HTRF). Type of assay: binding. Summed up:
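Compounds were mixed with the protein and a biotinylated Bim peptide spanning human residues 51-76. Plates were left overnight, then TR-FRET signal was measured. A four-parameter sigmoidal model applied to duplicate competition data gave IC50.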

Setting [3] is: cell free Mcl-1:Bim TR-FRET, recombinant human Mcl-1 (171-327).
The mark [4] stands for this setting: TR-FRET, 0.1 nM Mcl-1 (171-327), 0.05 nM biotin-Bim (51-76).
The mark [5] stands for this setting: Homo sapiens, OPM-2, 16 h, 16 h.
Setting [6] is: Homo sapiens, OPM-2, 16 h, 16 h incubation.

SMILES strings stand for the structures.

Usually IC50 stands for the concentration that inhibits the measured activity by half. `C[C@H]1C/C=C/[C@H](O)[C@@H]2CC[C@H]2CN2C[C@@]3(CCCc4cc(Cl)ccc43)COc3ccc(cc32)C(=O)NS(=O)(=O)[C@@H]1c1ccccc1` (single isomer, unassigned) [Example 654]: the half-maximal inhibitory concentration (IC50) came to 3510 nM in assay [1] (16 h) and 7.6 nM in assay [2] (setting [3]).
Take `CO[C@H]1/C=C/[C@@H](CO)C[C@H](C)S(=O)(=O)NC(=O)c2ccc3c(c2)N(C[C@@H]2CC[C@H]21)C[C@@]1(CCCc2cc(Cl)ccc21)CO3` (single isomer, unassigned) [Example 127]: the IC50 in assay [1] (16 h) amounted to 1850 nM; in assay [2] (setting [4]), 0.341 nM.
As for `COCCOCCN1[C@@H](C)C/C=C/[C@H](O)[C@@H]2CC[C@H]2CN2C[C@@]3(CCCc4cc(Cl)ccc43)COc3ccc(cc32)C(=O)NS1(=O)=O` [Example 25, (1S,3′R,6′R,7′S,8′E,11′S)-6-chloro-7′-hydroxy-12′-(2-(2-methoxyethoxy)ethyl)-11′-methyl-3,4-dihydro-2H,15′H-spiro[naphthalene-1,22′-[20]oxa[13]thia[1,12,14]triazatetracyclo[14.7.2.0^3,6.0^19,24]pentacosa[8,16,18,24]tetraen]-15′-one 13,13′-dioxide], the IC50 in assay [1] (setting [5]) was 166 nM; in assay [2] (setting [4]), 0.246 nM.
On to `CCC1CCC=CC(OC(C)C(N)=O)C2CCC2CN2CC3(CCCc4cc(Cl)ccc43)COc3ccc(cc32)C(=O)NS1(=O)=O` (mixture of isomers) [Example 1006], for which the values for the IC50 in assay [1] (16 h incubation) and in assay [2] (setting [4]) were 11600 nM and 0.81 nM, respectively.
For the compound `CC[C@@H]1CCCC[C@H](OCC(=O)OC)[C@@H]2CC[C@H]2CN2C[C@@]3(CCCc4cc(Cl)ccc43)COc3ccc(cc32)C(=O)NS1(=O)=O` [Example 993, methyl (((1S,3′R,6′R,7′S,12′R)-6-chloro-12′-ethyl-13′,13′-dioxido-15′-oxo-3,4-dihydro-2H-spiro[naphthalene-1,22′-[20]oxa[13]thia[1,14]diazatetracyclo[14.7.2.0^3,6.0^19,24]pentacosa [16,18,24]trien]-7′-yl)oxy)acetate], the figures for the IC50 in assay [1] (setting [6]) and in assay [2] (setting [4]) were 373 nM and 2.01 nM, respectively.
Regarding `COC[C@@H]1C[C@@H](C)CC[C@H](O)[C@@H]2CC[C@H]2CN2C[C@@]3(CCCc4cc(Cl)ccc43)COc3ccc(cc32)C(=O)NS1(=O)=O` (single isomer, unassigned) [Example 1037], the results for the IC50 in assay [1] (16 h incubation) and in assay [2] (setting [4]) were 744 nM and 0.831 nM, respectively.
`C[C@@H]1[C@@H](C)C/C=C/[C@H](OCC(=O)O)[C@@H]2CC[C@H]2CN2C[C@@]3(CCCc4cc(Cl)ccc43)COc3ccc(cc32)C(=O)NS1(=O)=O` [Example 292, (((1S,3′R,6′R,7′S,8′E,11′S,12′R)-6-chloro-11′,12′-dimethyl-13′,13′-dioxido-15′-oxo-3,4-dihydro-2H-spiro[naphthalene-1,22′-[20]oxa[13]thia[1,14]diazatetracyclo[14.7.2.0^3,6.0^19,24]pentacosa [8,16,18,24]tetraen]-7′-yl)oxy)acetic acid]: the figures for the IC50 in assay [1] (setting [5]) and in assay [2] (setting [4]) were 1110 nM and 0.0929 nM, respectively.
Turning to `CCOC[C@@H]1[C@@H](C)C/C=C/[C@H](O)[C@@H]2CC[C@H]2CN2C[C@@]3(CCCc4cc(Cl)ccc43)COc3ccc(cc32)C(=O)NS1(=O)=O` (single isomer, unassigned) [Example 466], the results for the IC50 in assay [1] (16 h) and in assay [2] (setting [4]) were 128 nM and 0.331 nM, respectively.
Regarding `C[C@@H]1CC/C=C/[C@H](OCc2nnn(C)n2)[C@@H]2CC[C@H]2CN2C[C@@]3(CCCc4cc(Cl)ccc43)COc3ccc(cc32)C(=O)NS1(=O)=O` [Example 957, (1S,3′R,6′R,7′S,8′E,12′R)-6-chloro-12′-methyl-7′-((2-methyl-2H-tetrazol-5-yl)methoxy)-3,4-dihydro-2H,15′H-spiro[naphthalene-1,22′-[20]oxa[13]thia[1,14]diazatetracyclo[14.7.2.0^3,6.0^19,24]pentacosa [8,16,18,24]tetraen]-15′-one 13′,13′-dioxide], the IC50 turned out to be 308 nM in assay [1] (setting [6]) and 0.442 nM in assay [2] (setting [4]).
For the compound `C[C@@H]1[C@@H](C)C/C=C/[C@H](OCC(=O)N2CCC(F)(F)CC2)[C@@H]2CC[C@H]2CN2C[C@@]3(CCCc4cc(Cl)ccc43)COc3ccc(cc32)C(=O)NS1(=O)=O` [Example 315, (1S,3′R,6′R,7′S,8′E,11′S,12′R)-6-chloro-7′-(2-(4,4-difluoro-1-piperidinyl)-2-oxoethoxy)-11′,12′-dimethyl-3,4-dihydro-2H,15′H-spiro[naphthalene-1,22′-[20]oxa[13]thia[1,14]diazatetracyclo[14.7.2.0^3,6.0^19,24]pentacosa [8,16,18,24]tetraen]-15′-one 13′,13′-dioxide], the IC50 in assay [1] (setting [5]) was 421 nM; in assay [2] (setting [4]), 0.774 nM.
For `CCN1CC/C=C/[C@H](OCC(=O)N2CCCC2)[C@@H]2CC[C@H]2CN2C[C@@]3(CCCc4cc(Cl)ccc43)COc3ccc(cc32)C(=O)NS1(=O)=O` [Example 89, (1S,3′R,6′R,7′S,8′E)-6-chloro-12′-ethyl-7′-(2-oxo-2-(1-pyrrolidinyl)ethoxy)-3,4-dihydro-2H,15′H-spiro[naphthalene-1,22′-[20]oxa[13]thia[1,12,14]triazatetracyclo[14.7.2.0^3,6.0^19,24]pentacosa[8,16,18,24]tetraen]-15′-one 13′,13′-dioxide], in that order: 798 nM and 0.666 nM.
`C[C@H]1/C=C/[C@H](O)[C@@H]2CC[C@H]2CN2C[C@@]3(CCCc4cc(Cl)ccc43)COc3ccc(cc32)C(=O)NS(=O)(=O)C1` (single isomer, unassigned) [Example 164]: the IC50 in assay [1] (16 h) was 21900 nM; in assay [2] (setting [4]), 1.44 nM.
As for `C[C@@H]1[C@@H](C)S(=O)(=O)NC(=O)c2ccc3c(c2)N(C[C@@H]2CC[C@H]2[C@H](O)/C=C/[C@@H]1C)C[C@@]1(CCCc2cc(Cl)ccc21)CO3` (single isomer, unassigned) [Example 1068], the figures for the half-maximal inhibitory concentration (IC50) in assay [1] (16 h incubation) and in assay [2] (setting [4]) were 1960 nM and 0.442 nM, respectively.
For the compound `CC[C@@H]1CC/C=C/[C@H](OCc2nnc(C)o2)[C@@H]2CC[C@H]2CN2C[C@@]3(CCCc4cc(Cl)ccc43)COc3ccc(cc32)C(=O)NS1(=O)=O` [Example 966, (1S,3′R,6′R,7′S,8′E,12′R)-6-chloro-12′-ethyl-7′-((5-methyl-1,3,4-oxadiazol-2-yl)methoxy)-3,4-dihydro-2H,15′H-spiro[naphthalene-1,22′-[20]oxa[13]thia[1,14]diazatetracyclo[14.7.2.0^3,6.0^19,24]pentacosa [8,16,18,24]tetraen]-15′-one 13′,13′-dioxide], the figures for the IC50 in assay [1] (setting [6]) and in assay [2] (setting [4]) were 754 nM and 0.349 nM, respectively.
On to `CC1CC=CC(O)C2CCC2CN2CC3(CCCc4cc(Cl)ccc43)COc3ccc(cc32)C(=O)NS(=O)(=O)C1Cc1ccccc1` (single isomer, unassigned) [Example 648], for which the IC50 in assay [1] (setting [5]) is 154 nM; in assay [2] (setting [3]), 1.45 nM.
For `Cc1nc(CN(Cc2noc(C)n2)[C@H]2/C=C/CC[C@@H](C)S(=O)(=O)NC(=O)c3ccc4c(c3)N(C[C@@H]3CC[C@H]32)C[C@@]2(CCCc3cc(Cl)ccc32)CO4)no1` [Example 602, (1S,3′R,6′R,7′S,8′E,12′R)-7′-(bis((5-methyl-1,2,4-oxadiazol-3-yl)methyl)amino)-6-chloro-12′-methyl-3,4-dihydro-2H,15′H-spiro[naphthalene-1,22′-[20]oxa[13]thia[1,14]diazatetracyclo[14.7.2.0^3,6.0^19,24]pentacosa [8,16,18,24]tetraen]-15′-one 13′,13′-dioxide], in that order: 727 nM and 1.74 nM.
Turning to `O=C1NS(=O)(=O)CCCCCC[C@@H](O)[C@@H]2CC[C@H]2CN2C[C@@]3(CCCc4cc(Cl)ccc43)COc3ccc1cc32` [Example 228, (1S,3′R,6′R,7′R)-6-chloro-7′-hydroxy-3,4-dihydro-2H,16′H-spiro[naphthalene-1,23′-[21]oxa[14]thia[1,15]diazatetracyclo[15.7.2.0^3,6.0^20,25]hexacosa[17,19,25]trien]-16′-one 14′,14′-dioxide], the IC50 in assay [1] (setting [5]) came to 23100 nM; in assay [2] (setting [4]), 13.1 nM.
For `C[C@@H]1[C@@H](C)C/C=C/[C@H](OCC(=O)NCC(F)(F)F)[C@@H]2CC[C@H]2CN2C[C@@]3(CCCc4cc(Cl)ccc43)COc3ccc(cc32)C(=O)NS1(=O)=O` [Example 297, 2-(((1S,3′R,6′R,7′S,8′E,11′S,12′R)-6-chloro-11′,12′-dimethyl-13′,13′-dioxido-15′-oxo-3,4-dihydro-2H-spiro[naphthalene-1,22′-[20]oxa[13]thia[1,14]diazatetracyclo[14.7.2.0^3,6.0^19,24]pentacosa [8,16,18,24]tetraen]-7′-yl)oxy)-N-(2,2,2-trifluoroethyl)acetamide], the results for the IC50 in assay [1] (setting [5]) and in assay [2] (setting [4]) were 478 nM and 0.654 nM, respectively.
Turning to `C[C@@H]1[C@@H](C)C/C=C/[C@H](OCC(=O)N2CCOCC2)[C@@H]2CC[C@H]2CN2C[C@@]3(CCCc4cc(Cl)ccc43)COc3ccc(cc32)C(=O)NS1(=O)=O` [Example 313, (1S,3′R,6′R,7′S,8′E,11′S,12′R)-6-chloro-11′,12′-dimethyl-7′-(2-(4-morpholinyl)-2-oxoethoxy)-3,4-dihydro-2H,15′H-spiro[naphthalene-1,22′-[20]oxa[13]thia[1,14]diazatetracyclo[14.7.2.0^3,6.0^19,24]pentacos [8,16,18,24]tetraen]-15′-one 13′,13′-dioxide], the IC50 in assay [1] (setting [5]) worked out at 220 nM; in assay [2] (setting [4]), 0.185 nM.

These data come from patent US12091425B2 (AMGEN INC., priority 2016, dated 2024).
